# In patent US6159746A, “Solid phase immunoassay to detect inhibitors of proteolytic enzymes” (Gruppo Lepetit S.p.A., priority 1994, dated 2000):
# Read-outs that look alike come from different tables or passages of the source. Square brackets hold non-standard residues; d marks the D form. Peptide text beside a SMILES is read from it. * marks the point of attachment. Sta = CC(C)C[C@H](N)[C@@H](O)CC(=O)O; Isovaleryl = CC(C)CC(=O)*
# How the values were obtained:
# Type in all cases: biochemical
# Hiv-1 protease = molecular target: T1, Hiv-1 protease (Human immunodeficiency virus type 1 group M subtype B, UniProt P04585); assay: Inhibition of Hiv-1 protease, solid phase tubulin immunoassay, Table I
# T1 construct: Hiv-1 protease
# Protocol: (§1) Covalent linkage of tubulin to the support
# (§2) 0.150 ml of a freshly made phosfate buffered saline (PBS) solution (pH=7.3) containing 0.03 mg of bis(sulfo-succinidimyl)suberate (BS3, Pierce, Rockford, Ill.) are dispensed into each well of a cova-link 96 wells plate (Nunc). The solution is left in the wells at room temperature for 90 minutes, afterwards the wells are washed three times with PBS solution.
# (§3) Afterwards, 0,150 ml of a PBS solution containing 5% glycine (v/v) and 0.75 μg of tubulin obtained according to Example 1 is added to each well. After 90 minutes at room temperature, the solution is removed and 0.3 ml of a 5% glycine PBS solution are added. After about 2 hours, the wells are washed with fresh PBS solution.
# (§4) Determination of the anti-proteolytic activity
# (§5) 0.15 ml of a solution containing a proteolytic activity and a known inhibitor (concentration from 0.01 to 10 μg/ml) are added to the wells treated according to Example 2 or Example 2a and incubated for 2 hours at 37° C. […]
# (§6) After three rapid washing with PBS solution (pH=7.3), the inhibitory activity is determined as follows:
# (§7) A YL 1/2 antibody solution (Amersham) diluted 1:1000 in PBS buffer is added to each well and incubated for 1 hour at room temperature. […] After 5-10 minutes, the reaction is stopped with H2 SO4 4 M. The colour is detected on a Titertek Multiscan MCC340-HK spectrophotometer reading the absorbance at 492 nm.
# Elastase = assay: Inhibition of elastase, solid phase tubulin immunoassay, Table I; details: elastase 0.5 μg/ml, 20 mM TRIS pH 7.4, 2 hours at 37° C.; inhibitor 0.01 to 10 μg/ml
# Protocol: as §1, §2, §3, §4
# (§8) 0.15 ml of a solution containing a proteolytic activity and a known inhibitor (concentration from 0.01 to 10 μg/ml) are added to the wells treated according to Example 2 or Example 2a and incubated for 2 hours at 37° C.
# (§9) The employed proteolytic enzymes are:
# (§10) Serine class: trypsin (0.25 μg/ml), subtilisin (0.25 μg/ml), elastase (0.5 μg/ml) and cathepsin G (5 μg/ml), in a 20 mM solution of Tris-hydroxymethyl-aminomethanchloride (TRIS) (pH=7.4);
# (§11) Table I reports the concentration of these inhibitors which determines a 50% inhibition of the above proteases.
# as §6
# (§12) A YL 1/2 antibody solution (Amersham) diluted 1:1000 in PBS buffer is added to each well and incubated for 1 hour at room temperature. After three rapid washing with PBS solution, an anti-rat peroxydated antibody solution (Amersham) diluted 1:1000 in PBS buffer is added to each well and incubated for 1 hour at room temperature. After 10-15 minutes, the colour is developed with a 0.5 M citric acid solution (pH=5.5) containing 1 mg/ml of o-phenylendiamine. After 5-10 minutes, the reaction is stopped with H2 SO4 4 M. The colour is detected on a Titertek Multiscan MCC340-HK spectrophotometer reading the absorbance at 492 nm.
# Renin = molecular target: T2, Renin (Homo sapiens, UniProt P00797); assay: Inhibition of renin, solid phase tubulin immunoassay, Table I
# T2 sequence (P00797 67-406): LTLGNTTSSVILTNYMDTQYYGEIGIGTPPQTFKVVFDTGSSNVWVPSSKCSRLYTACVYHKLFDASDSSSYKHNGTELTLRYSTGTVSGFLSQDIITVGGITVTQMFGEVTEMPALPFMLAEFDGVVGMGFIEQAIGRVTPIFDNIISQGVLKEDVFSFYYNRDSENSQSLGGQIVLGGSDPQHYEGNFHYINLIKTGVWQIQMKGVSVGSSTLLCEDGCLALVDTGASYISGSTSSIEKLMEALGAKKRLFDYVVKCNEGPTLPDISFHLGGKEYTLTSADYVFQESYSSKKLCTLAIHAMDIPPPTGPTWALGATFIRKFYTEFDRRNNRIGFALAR
# Protocol: as §1, §2, §3, §4, §5, §6, §7
# Subtilisin = assay: Inhibition of subtilisin, solid phase tubulin immunoassay, Table I; details: subtilisin 0.25 μg/ml, 20 mM TRIS pH 7.4, 2 hours at 37° C.; inhibitor 0.01 to 10 μg/ml
# Protocol: as §1, §2, §3, §4, §8, §9, §10, §11, §6, §12
# Cathepsin G = molecular target: T3, Cathepsin G (Homo sapiens, UniProt P08311); assay: Inhibition of cathepsin G, solid phase tubulin immunoassay, Table I
# T3 sequence (P08311 21-255): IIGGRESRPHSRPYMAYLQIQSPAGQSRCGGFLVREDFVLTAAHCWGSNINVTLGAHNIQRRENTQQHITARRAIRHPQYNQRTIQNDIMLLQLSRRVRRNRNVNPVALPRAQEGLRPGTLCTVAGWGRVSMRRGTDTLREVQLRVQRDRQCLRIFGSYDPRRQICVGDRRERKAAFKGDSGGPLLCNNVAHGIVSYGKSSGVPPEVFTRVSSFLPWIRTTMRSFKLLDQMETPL
# Protocol: as §1, §2, §3, §4, §8, §9, §10, §11, §6, §12
# Cathepsin B = Cathepsin B (Homo sapiens, UniProt P07858); assay: Inhibition of cathepsin B, solid phase tubulin immunoassay, Table I
# Protocol: as §1, §2, §3, §4, §5, §6, §7
# Trypsin = assay: Inhibition of trypsin, solid phase tubulin immunoassay (YL 1/2 antibody), Table I; details: trypsin 0.25 μg/ml, 20 mM TRIS pH 7.4, 2 hours at 37° C.; inhibitor 0.01 to 10 μg/ml
# Protocol: as §1, §2, §3, §4, §8, §9, §10, §11, §6, §12
# Papain [1] = molecular target: Papain (Carica papaya, UniProt P00784); assay: Inhibition of papain, solid phase tubulin immunoassay, Table I; details: papain 0.25 μg/ml, 50 mM acetate pH 5.5, 5 mM cysteine, 2 hours at 37° C.; inhibitor 0.01 to 10 μg/ml; read-out: Concentration of inhibitor in the proteolytic solution which determines the 50% inhibition of the protease (converted)
# Protocol: as §1, §2, §3, §4, §8, §9
# (§13) Cysteine class: papain (0.25 μg/ml) and cathepsin B (10 μg/ml) in a 50 mM acetate buffer solution (pH=5.5) containing 5 mM cysteine.
# as §11, §6, §12
# Cathepsin D = Cathepsin D (Homo sapiens, UniProt P07339); assay: Inhibition of cathepsin D, solid phase tubulin immunoassay, Table I
# Sequence of Cathepsin D (P07339 65-412, species assumed): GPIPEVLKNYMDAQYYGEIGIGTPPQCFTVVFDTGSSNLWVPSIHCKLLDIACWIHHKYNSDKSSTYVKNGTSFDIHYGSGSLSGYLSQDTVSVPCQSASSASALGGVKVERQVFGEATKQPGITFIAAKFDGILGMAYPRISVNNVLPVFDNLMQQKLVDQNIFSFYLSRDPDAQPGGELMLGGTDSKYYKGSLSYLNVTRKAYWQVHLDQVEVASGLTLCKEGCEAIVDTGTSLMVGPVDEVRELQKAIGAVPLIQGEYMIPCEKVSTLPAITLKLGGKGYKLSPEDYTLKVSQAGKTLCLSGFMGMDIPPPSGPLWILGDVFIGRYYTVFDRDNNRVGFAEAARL
# Protocol: as §1, §2, §3, §4, §5, §6, §7
# [2] = system: proteases of the cysteine class; assay: Specificity for protease classes, solid phase tubulin immunoassay; details: in words
# Protocol: (§14) As mentioned above, the first step of the present assay is the contact of the supported tubulin or tubulin-like peptide with a solution containing a proteolytic activity as above described. By contacting solutions containing different proteolytic activities and a same inhibitor substance, it is possible to determine both the specificity of said inhibitor against the selected protease and the percentage of inhibition.
# as §4, §8, §9, §13, §11, §6, §7
# Pepsin = Pepsin (Sus scrofa, UniProt P00791); assay: Inhibition of pepsin, solid phase tubulin immunoassay, Table I
# Sequence of Pepsin (P00791 60-385): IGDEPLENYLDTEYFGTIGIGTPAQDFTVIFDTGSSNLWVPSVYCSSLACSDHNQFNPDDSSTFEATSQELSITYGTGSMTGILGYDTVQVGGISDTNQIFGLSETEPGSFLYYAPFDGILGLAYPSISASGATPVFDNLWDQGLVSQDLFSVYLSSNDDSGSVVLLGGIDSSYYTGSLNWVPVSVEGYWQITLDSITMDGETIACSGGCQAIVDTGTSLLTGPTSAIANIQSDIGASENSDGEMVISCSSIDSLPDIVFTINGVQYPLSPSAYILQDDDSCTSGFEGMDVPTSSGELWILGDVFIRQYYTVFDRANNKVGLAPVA
# Protocol: as §1, §2, §3, §4, §8, §9
# Aspartic class: pepsin (5 μg/ml), cathepsin D (5 μg/ml), renin (5 μg/ml) and Hiv-1 protease (5 μg/ml), in a 50 mM acetate buffer solution (pH=5.5) containing 0.01% Tween 20 (Pierce);
# as §6, §12
# [3] = system: proteases of the aspartic class; assay: Specificity for protease classes, solid phase tubulin immunoassay; details: in words
# Protocol: as §14, §4, §8, §9
# Aspartic class: pepsin (5 μg/ml), cathepsin D (5 μg/ml), renin (5 μg/ml) and Hiv-1 protease (5 μg/ml), in a 50 mM acetate buffer solution (pH=5.5) containing 0.01% Tween 20 (Pierce); […]
# as §6, §7
# [4] = system: proteases of the serine class; assay: as above; details: in words
# Protocol: as §14, §4, §8, §9
# Serine class: trypsin (0.25 μg/ml), subtilisin (0.25 μg/ml), elastase (0.5 μg/ml) and cathepsin G (5 μg/ml), in a 20 mM solution of Tris-hydroxymethyl-aminomethanchloride (TRIS) (pH=7.4); […]
# as §6, §7
# Papain [5] = molecular target: T4, Papain (Carica papaya, UniProt P00784); assay: Inhibition of papain, solid phase tubulin immunoassay, Table I; details: papain 0.25 μg/ml, 50 mM acetate pH 5.5, 5 mM cysteine, 2 hours at 37° C.; inhibitor 0.01 to 10 μg/ml
# T4 sequence (P00784 whole entry, looked up): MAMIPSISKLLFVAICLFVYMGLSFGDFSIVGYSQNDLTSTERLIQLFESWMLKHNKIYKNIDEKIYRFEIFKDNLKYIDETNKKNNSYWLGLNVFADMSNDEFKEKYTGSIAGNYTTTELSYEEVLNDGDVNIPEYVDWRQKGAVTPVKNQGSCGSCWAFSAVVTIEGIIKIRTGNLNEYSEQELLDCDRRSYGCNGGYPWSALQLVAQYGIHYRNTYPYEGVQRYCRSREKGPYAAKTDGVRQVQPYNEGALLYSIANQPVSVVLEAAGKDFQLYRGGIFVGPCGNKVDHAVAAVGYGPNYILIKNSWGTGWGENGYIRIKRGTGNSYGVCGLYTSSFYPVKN
# Protocol: as §1, §2, §3, §4, §8, §9, §13, §11, §6, §12
molecule,measurement,setting,value
CC(=O)N[C@@H](CC(C)C)C(=O)N[C@@H](CC(C)C)C(=O)N[C@H](C=O)CCCNC(=N)N [Leupeptin],IC50,Hiv-1 protease,> 23.4 µM
same,Concentration of inhibitor in the proteolytic solution which determines the 50% inhibition of the protease,Elastase,n.i. (no inhibition)
same,IC50,Renin,> 23.4 µM
same,Concentration of inhibitor in the proteolytic solution which determines the 50% inhibition of the protease,Subtilisin,n.i. (no inhibition)
same,IC50,Cathepsin G,> 23.4 µM
same,IC50,Cathepsin B,5.86 µM
same,Concentration of inhibitor in the proteolytic solution which determines the 50% inhibition of the protease,Trypsin,n.i. (no inhibition)
same,IC50,Papain [1],0.117 µM
same,IC50,Cathepsin D,> 23.4 µM
same,specific inhibition of proteases of the cysteine class,[2],specific inhibition
same,IC50,Pepsin,> 23.4 µM
CC(C)CC(=O)N[C@H](C(=O)N[C@H](C(=O)N[C@@H](CC(C)C)[C@@H](O)CC(=O)N[C@@H](C)C(=O)N[C@@H](CC(C)C)[C@@H](O)CC(=O)O)C(C)C)C(C)C [Pepstatin] (Isovaleryl-VV[Sta]A[Sta]-OH),Concentration of inhibitor in the proteolytic solution which determines the 50% inhibition of the protease,Elastase,n.i. (no inhibition)
same,specific inhibition of proteases of the aspartic class,[3],specific inhibitor for the proteases of the aspartic class
same,Concentration of inhibitor in the proteolytic solution which determines the 50% inhibition of the protease,Subtilisin,n.i. (no inhibition)
same,IC50,Cathepsin G,> 14.6 µM
same,Concentration of inhibitor in the proteolytic solution which determines the 50% inhibition of the protease,Trypsin,n.i. (no inhibition)
same,IC50,Papain [1],> 14.6 µM
same,IC50,"Pepsin; 50% inhibition of pepsin, under the test conditions",~0.02 µM
α-anti trypsin: inhibitor of the serine class,Concentration of inhibitor in the proteolytic solution which determines the 50% inhibition of the protease,"Hiv-1 protease; Hiv-1 protease 5 μg/ml, 50 mM acetate pH 5.5, 0.01% Tween 20, 2 hours at 37° C., inhibitor 0.01 to 10 μg/ml",n.i. (no inhibition)
same,Concentration of inhibitor in the proteolytic solution which determines the 50% inhibition of the protease,Elastase,1.0 µg/mL
same,Concentration of inhibitor in the proteolytic solution which determines the 50% inhibition of the protease,"Renin; renin 5 μg/ml, 50 mM acetate pH 5.5, 0.01% Tween 20, 2 hours at 37° C., inhibitor 0.01 to 10 μg/ml",n.i. (no inhibition)
same,Concentration of inhibitor in the proteolytic solution which determines the 50% inhibition of the protease,Subtilisin,7.5 µg/mL
same,specific inhibition of proteases of the serine class,[4],specific inhibition
same,Concentration of inhibitor in the proteolytic solution which determines the 50% inhibition of the protease,"Cathepsin G; cathepsin G 5 μg/ml, 20 mM TRIS pH 7.4, 2 hours at 37° C., inhibitor 0.01 to 10 μg/ml",n.i. (no inhibition)
same,Concentration of inhibitor in the proteolytic solution which determines the 50% inhibition of the protease,"Cathepsin B; cathepsin B 10 μg/ml, 50 mM acetate pH 5.5, 5 mM cysteine, 2 hours at 37° C., inhibitor 0.01 to 10 μg/ml",n.i. (no inhibition)
same,Concentration of inhibitor in the proteolytic solution which determines the 50% inhibition of the protease,Trypsin,1.0 µg/mL
same,Concentration of inhibitor in the proteolytic solution which determines the 50% inhibition of the protease,Papain [5],n.i. (no inhibition)
same,Concentration of inhibitor in the proteolytic solution which determines the 50% inhibition of the protease,"Cathepsin D; cathepsin D 5 μg/ml, 50 mM acetate pH 5.5, 0.01% Tween 20, 2 hours at 37° C., inhibitor 0.01 to 10 μg/ml",n.i. (no inhibition)
same,Concentration of inhibitor in the proteolytic solution which determines the 50% inhibition of the protease,"Pepsin; pepsin 5 μg/ml, 50 mM acetate pH 5.5, 0.01% Tween 20, 2 hours at 37° C., inhibitor 0.01 to 10 μg/ml",n.i. (no inhibition)
